Data set [1] relates to caspase-3 protease activity. As to the kind of experiment: Caspase assay with Ac-DEVD-AFC in U2OS cells. In kind it is cell-based, human. Particulars: 24 h. As to the method: Caspase assay. Both adherent and detached cells in 6-well dishes were harvested by centrifugation at 2000 rpm for 15 min at 4° C. The resulting cell pellets were incubated in 50 μl of chilled lysis buffer (Clontech) on ice for 10 min. Cell lysates were incubated in a reaction mix containing 10 mM HEPES, 2.0 mM EDTA, 10 mM KCl, 1.5 mM MgCl2, 1.0 mM PMSF, aprotinine, pepstatin A and leupeptine (20 μM each), 6.0 mM DTT and Ac-DEVD-AFC (4.0 μg/ml). Reactions were allowed to proceed at room temperature. Fluorescence readings were taken at 15 min intervals for 1 h using a spectrofluorometer (excitation wavelength: 400 nm; emission wavelength: 505 nm).
(§1) FIG. 6: Caspase assay. (A) Caspase 3 protease activity in U2OS cells exposed to either Eto (Etoposide) for 24 h or 50 μM decoy peptides for 48 or 72 h, were assayed using the Ac-DEVD-AFC fluorogenic substrate. […] Values represent the average +/− standard deviation of two independent experiments. Control: cells cultured in normal growth medium; Vehicle: cells cultured in the presence of 0.5% DMSO; (B) Western blot analysis of PARP cleavage. U2OS cells were exposed to either Eto (Etoposide) for 24 h or 50 μM decoy peptides for 72 h. Lane 1: Vehicle cells (cultured in the presence of 0.5% DMSO for 24 h); Lane 2: 25 μM Eto; Lane 3: 250 μM Eto; Lane 4: Vehicle (cells cultured in the presence of 0.5% DMSO for 72 h); Lane 5: *SCR; Lane 6: *Br1; Lane 7: *Br2.

The next data set deals with PARP cleavage. In words: Western blot analysis of PARP cleavage in U2OS cells. In kind it is cell-based, human. Particulars: 25 and 250 μM, 24 h. As to the method: Denaturing SDS-PAGE and western blotting. Proteins from whole cell lysate and IP complexes were separated using standard denaturing polyacrylamide gel electrophoresis as described previously (Hsu, S. I. H., et al. EMBO J 20, 2273-2285 (2001)).
as §1
(In general: Immunoblotting shows a protein as a band on a membrane.)

For another data set, the system named is FLAG-TRIP-Br1. In words: Western blot with TB1-27#2 and peptide competition. In kind it is binding, human. The note with it: lysates of transfected U2OS cells. On the procedure:
For Western blot analysis, U2OS cells transfected with the pcDNA3 vector, pcDNA3 vector with TRIP-Br1 insert or TRIP-Br2 insert were harvested. The lysates were separated in a 10% acrylamide gel and blotted onto a transfer membrane. The blot was cut and probed with a mouse monoclonal anti-FLAG antibody or TB1-27#2. For 2 sections, TB1-27 and Cyr61 peptides were added in addition to TB1-27#2 as a source of competition.

In the next data set the test system is FLAG-TRIP-Br1 protein. As to the kind of experiment: Immunoprecipitation assay with TB1-27#2 and peptide competition. Type of data set: binding, human. Particulars: lysates of transfected U2OS cells. On the procedure: In an immunoprecipitation assay, fifty microliters of Protein A-agarose (Amersham) were incubated with 2 ml of TB1-27#2 spent media overnight. Each aliquot of agarose was washed and added to the lysates of variously transfected U2OS cells. The TB1-27 and Cyr61 peptides were separately added into 2 of the reactions while one of the reactions was probed with mouse monoclonal anti-His antibodies instead of […]. The agarose was harvested and washed the next day, and the bound proteins analyzed by SDS-PAGE. The gel was blotted and detected with anti-FLAG antibodies. The results are shown in FIG. 23 (the left panel contains 1/10th of the input of the pre-cleared U2OS cell lysate while the right panel contains the proteins eluted from the Protein A-agarose). […] Anti-DP-1 was used as a positive control for immunoprecipitation since it is known that TRIP-Br1 interacts directly with DP-1.

Another data set has as its system U2OS cells. In words: Cell cycle synchronization of U2OS cells, flow cytometry. In kind it is cell-based, human. The note with it: 75 ng/ml, 22 h, data not shown. On the procedure: Cell synchronization and cell cycle progression analyses. U2OS cells in 6-well dishes were subjected to nocodazole treatment (75 ng/ml) for 22 h. Thereafter, the nocodazole-arrested cultures were released by washing with 1×PBS and grown in DMEM plus 10% FBS containing either vehicle (0.5% DMSO) or 20 μM decoy peptides. Cells were harvested at 4-h intervals for standard Western blot analyses. For the analysis of Geminin protein profile, mock- or cyclin E/Cdk2-transfected U2OS cells were exposed to nocodazole (75 ng/ml) at 3 h post-transfection for 22 h.
(In general: Flow cytometry measures light scatter and fluorescence of single cells or particles in a stream.)

Another data set has as its system WI-38 fibroblasts. As to the kind of experiment: Trypan blue exclusion manual cell count of serum-stimulated WI-38 cells. Type of data set: cell-based, human. Particulars: WI-38, 0.1 μM, 72 h post-stimulation. As to the method: (§2) DNA enzyme transfection. WI-38 cells were rendered quiescent by cultivation in serum-free medium for 72 h before being transfected with DNA enzyme (0.1 μM) using Superfect as reported previously (Santiago, F. S., et al. Nat Med 5, 1264-1269 (1999)) in accordance to manufacturer's recommendations (Qiagen).
Cell proliferation assays. For the BrdU incorporation assays, growth-quiescent WI-38 cells in 96-well dishes were transfected with DNA enzyme and/or 100 ng of pCMV/E2F1, pCMV/DP1, pRSV/Cyclin E, or pCMV/Cdk2 and then exposed to Bromodeoxyuridine (BrdU, 100 μM) in the presence or absence of 10% FBS for 20 h. Bromodeoxyuridine (BrdU) incorporation was monitored with a calorimetric ELISA assay using a cell proliferation kit according to manufacturer's recommendations (Boehringer Mannheim). For manual cell count, growth-quiescent WI-38 cells in 24-well dishes were transfected with DNA enzyme and then exposed to 10% FBS for 72 h. The cells were rinsed with PBS, pH 7.4, and trypsinized, and 10 μl of cell suspension was taken from each sample and mixed with equal volume of trypan blue stain (Sigma, 0.4% w/v in 1×PBS). The number of unstained cells was enumerated manually using a hemocytometer. For colony formation assays, growth-quiescent WI-38 cells in 12-well dishes were transfected with DNA enzyme and then exposed to 10% FBS for 120 h. […]

Data set [2] concerns WI-38 cells. As to the kind of experiment: BrdU incorporation, serum-induced S phase entry of WI-38 cells. In kind it is cell-based, human. Particulars: WI-38, 0.1 μM, 20 h; compared to unstimulated cells. As to the method:
as §2
(§3) Cell proliferation assays. For the BrdU incorporation assays, growth-quiescent WI-38 cells in 96-well dishes were transfected with DNA enzyme and/or 100 ng of pCMV/E2F1, pCMV/DP1, pRSV/Cyclin E, or pCMV/Cdk2 and then exposed to Bromodeoxyuridine (BrdU, 100 μM) in the presence or absence of 10% FBS for 20 h. Bromodeoxyuridine (BrdU) incorporation was monitored with a calorimetric ELISA assay using a cell proliferation kit according to manufacturer's recommendations (Boehringer Mannheim). For manual cell count, growth-quiescent WI-38 cells in 24-well dishes were transfected with DNA enzyme and then exposed to 10% FBS for 72 h. The cells were rinsed with PBS, pH 7.4, and trypsinized, and 10 μl of cell suspension was taken from each sample and mixed with equal volume of trypan blue stain (Sigma, 0.4% w/v in 1×PBS). The number of unstained cells was enumerated manually using a hemocytometer. For colony formation assays, growth-quiescent WI-38 cells in 12-well dishes were transfected with DNA enzyme and then exposed to 10% FBS for 120 h. Cells were stained in situ with crystal violet (0.75% w/v hexamethyl-p-rosaniline chloride [SIGMA], 50% ethanol, 1.75% w/v paraformaldehyde, 0.25% w/v NaCl) for 10 min, and then rinsed thoroughly with deionized water to remove excess stains.
FIG. 13: (A) E-Br1 or E-Br2 suppresses serum-inducible S phase entry. Sub-confluent WI-38 cells were serum-starved for 72 h. Following DNA enzyme transfection, the cultures were re-stimulated with serum and allowed to proliferate in BrdU labeling medium. After 20 h, cells were assayed for BrdU incorporation with a colorimetric ELISA assay. Values represent the average of at least two independent experiments. […] Sub-confluent WI-38 cells were serum-starved for 72 h. […]
Background: Incorporation of labelled thymidine or its analogues reports DNA synthesis.

Data set [3] relates to WI-38 cells. As to the kind of experiment: Colony formation assay of WI-38 cells (crystal violet). Type of data set: cell-based, human. The note with it: WI-38, serum-induced, 72 h. As to the method: as §2
as §3, with “For colony formation assays, growth-quiescent WI-38 cells in 12-well dishes were transfected with DNA enzyme and then exposed to 10% FBS for 120 h.” left out
FIG. 12: (A) E-Br1 or E-Br2 inhibits cell proliferation. Sub-confluent WI-38 cells were serum-starved for 72 h. Following DNA enzyme transfection, the cultures were re-stimulated with serum and allowed to proliferate. After 72 h, cells were harvested for viable cell count analysis. 10 μl of cell suspension from each sample was mixed with equal volume of 0.4% trypan blue stain. The number of unstained cells was enumerated manually using a hemocytometer. Data represent the average of at least two independent experiments. […] (B) E-Br1 or E-Br2 suppresses colony formation. Sub-confluent WI-38 cells were serum-starved for 72 h. […]

Another data set relates to hTRIP-Br1 mRNA. In words: Semi-quantitative RT-PCR of intact hTRIP-Br1 transcripts in WI-38 cells. Type of data set: cell-based, human. The note with it: WI-38, 0.1 μM, 16 h post-stimulation with 10% FBS. On the procedure: as §2
(§4) Semi-quantitative RT-PCR. Following various treatments, WI-38 cells in 6-well culture dish were subjected to total RNA extraction using the TRIZOL® Reagent (Life Technologies). Total RNA (4 μg) was reversed transcribed using oligo-dT and M-MLV reverse transcriptase in a total reaction volume of 20 μl. Polymerase Chain Reactions (PCR) were carried out on 3 μl cDNA sample in the presence of […] deoxyribonucleotide triphosphates (dNTPs) and 40 μM of specific primer pairs in a total reaction volume of 50 μl. […] Post-PCR samples were analyzed by agarose gel electrophoresis.
(§5) FIG. 11: (A) hTRIP-Br1 and hTRIP-Br2 expression is serum-inducible. […] At 24 h post-serum re-stimulation, semi-quantitative RT-PCR analysis was performed on total RNA to assess hTRIP-Br1 and hTRIP-Br2 expression. β-actin was included as an internal control. […] Semi-quantitative RT-PCR analysis was performed on total RNA to assess hTRIP-Br1 and hTRIP-Br2 expression. β-actin was included as an internal control. […]

For another data set, the system named is hTRIP-Br2 mRNA. As to the kind of experiment: Semi-quantitative RT-PCR of intact hTRIP-Br2 transcripts in WI-38 cells. In kind it is cell-based, human. Particulars: WI-38, 0.1 μM, 16 h post-stimulation with 10% FBS. On the procedure:
as §2, §4, §5

[invdT] = inverted (3'-3') thymidine

As to `COc1cc([C@@H]2c3cc4c(cc3[C@@H](O[C@@H]3O[C@@H]5CO[C@@H](C)O[C@H]5[C@H](O)[C@H]3O)[C@H]3COC(=O)[C@H]23)OCO4)cc(OC)c1O` [Etoposide, etoposide, reference compound], in [1], the caspase-3 activity entry is on record as “dose-dependent stimulation of caspase-3 activity several orders of magnitude above baseline”. Moreover, the PARP cleavage result in the data set with PARP cleavage was “resulted in PARP cleavage in a dose-dependent manner”.
On to “DPGHTAAVAQAPPAVAS (Immunogenic peptide from human TRIP-Br1; listed as Homo sapiens) [TB1-27]”, for which the “blocking of TB1-27#2 binding in Western blot” value in the data set with FLAG-TRIP-Br1 is reported as “able to block the binding”. In the data set with FLAG-TRIP-Br1 protein, the “effect of competing peptide on TB1-27#2 binding to FLAG-TRIP-Br1 in immunoprecipitation” value was “abolished the binding”.
Turning to `COC(=O)Nc1nc2ccc(C(=O)c3cccs3)cc2[nH]1` [nocodazole], the “cells arrested at the G2/M boundary with 4N DNA content” value in the data set with U2OS cells is listed as “more than 90%”.
Take “5′-C AGCTACTGTGGCTAGCTACAACGACCTGTCAT-3′ (DNA CAGCTACTGTGGCTAGCTACAACGACCTGTCAT; DNA, 3' [invdT], backbone not given here) [E-SCR, reference compound]”: the “effects on WI-38 growth as compared to vehicle-treated cells” value in the data set on WI-38 fibroblasts is reported as “no significant effects”. Also, the “BrdU incorporation on serum stimulation” value with WI-38 cells [2] was “approximately twice as much BrdU”. The colony forming potential result in the data set on WI-38 cells [3] is “colony forming potential similar to the normal and the vehicle-treated controls”. Besides, the “serum-inducible steady-state hTRIP-Br1 mRNA level” value in the data set with hTRIP-Br1 mRNA is recorded as “no effect”. In addition, the “serum-inducible steady-state hTRIP-Br2 mRNA level” value in the data set with hTRIP-Br2 mRNA is given as “no effect”.

(Values after patent US7223733B2, “Modulation of TRIP-Br function and method of treating proliferative disorders” (National University of Singapore, priority 2004, dated 2007).)
